For one assay, the system named is EMT6 cells. Briefly: wound healing (scratch) migration assay. Conditions: for activity in the scratch assay relative to the other antibodies: comparison between 16B5 configurations. Format: cell-based, mouse. The protocol:
FIG. 4. h16B5 blocks the migration of cancer cell lines.
To test the activity of anti-clusterin antibodies against cancer cell migration, a standard wound healing, or scratch assay, was used. In this assay, EMT6 cells, a mouse mammary carcinoma cell line, was plated at high density and subjected to wounding by the creation of a scratch in the cell layer. At time 0, a wide denuded area is evident that quickly fills up after incubation of the cells at 37 C for 15 h (see upper left-hand panels in FIG. 4).

The subject of assay [1] is DU145 human prostate cancer cell line. Briefly: DU145 prostate tumor xenograft. Format: in vivo, SCID mice. The following applies: 5 mg/kg i.p. twice per week. The protocol:
FIG. 6. Treatment of prostate cancer tumors with h16B5 reduces the growth of the tumors and increases their response to chemotherapy. DU145 prostate cancer cells (2×10^6) were implanted s.c. into SCID mice and allowed to grow until the tumor sizes were approximately 100 mm3. Tumors were measured bi-weekly with a digital caliper and tumor volumes were calculated as L×W×H. Each group contained 8 animals that were randomized prior to the beginning off the treatments. The results were expressed as mm^3±SEM. The P values were calculated using the Student's T test.
These studies were performed to measure the in vivo efficacy of h16B5 in models of human cancer. Antisense oligonucleotides and small interfering RNAs targeting clusterin have been reported to induce apoptosis and chemosensitivity in vitro in prostate cancer xenografts. The model system that was used comprised the DU145 human prostate cancer cell line that is androgen-insensitive and represents one of the most well characterized models for this disease. Thus, 2 million cells were implanted sub-cutaneously into the flanks of SCID mice and the tumors were allowed to grow to approximately 100 mm^3. Starting on day 1, h16B5 was injected intra-peritoneally (i.p.) at a dosage of 5 mg/kg and from day 4, taxotere (TxT) was injected i.p. at a dosage of 10 mg/kg. […]

Another assay deals with T1, murine clusterin (Mus musculus, UniProt Q06890).
T1 construct: murine clusterin that was expressed in BR1-JM01 cells; endogenous in cells; host or cells: BR1-JM01 mouse mammary carcinoma cells
T1 sequence (Q06890 22-448): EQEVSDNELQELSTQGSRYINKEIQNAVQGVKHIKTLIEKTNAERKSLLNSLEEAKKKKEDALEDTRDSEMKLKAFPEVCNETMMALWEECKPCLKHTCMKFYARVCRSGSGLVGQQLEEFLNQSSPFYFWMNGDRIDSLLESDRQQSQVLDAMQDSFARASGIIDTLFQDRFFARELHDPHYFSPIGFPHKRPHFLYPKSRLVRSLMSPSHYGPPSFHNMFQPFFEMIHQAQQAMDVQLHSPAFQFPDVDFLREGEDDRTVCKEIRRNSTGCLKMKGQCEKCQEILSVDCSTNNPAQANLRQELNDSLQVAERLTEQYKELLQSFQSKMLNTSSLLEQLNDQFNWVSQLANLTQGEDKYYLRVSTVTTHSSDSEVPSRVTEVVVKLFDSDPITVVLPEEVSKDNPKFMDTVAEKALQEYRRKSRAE
Briefly: immunohistochemistry on frozen sections of 4T1 mouse mammary tumors. The assay is classed as binding. The following applies: 5 μg/ml, 1 h. The protocol:
FIG. 16. […] The experiment was performed using immunohistochemistry and detection was accomplished using a HRP-conjugated secondary antibody.
Briefly, the frozen sections were fixed with ice-cold acetone for 10 minutes and non-specific binding was blocked with a reagent supplied in a commercially available kit (Dako Canada, Inc., Burlington, ON). H16B5 was incubated with the mouse tumor section for 1 h at a concentration of 5 μg/ml. […] A control sample was processed in an identical manner with a human isotype control IgG.

The test system of assay [2] is PC-3 prostate cancer cells. Briefly: PC-3 prostate tumor xenograft. The assay is classed as in vivo, SCID mice. The protocol: PC-3 prostate cancer cells (2×10^6) were implanted s.c. into SCID mice and allowed to grow until the tumor sizes were approximately 100 mm^3. Tumors were measured bi-weekly with a digital caliper and tumor volumes were calculated as L×W×H. Each group contained 8 animals that were randomized prior to the beginning off the treatments. The results were expressed as mm^3±SEM.
A second prostate cancer model study was conducted in a different tumor model by implanting PC-3 prostate cancer cells. PC-3 cells are also hormone-insensitive but are documented as being slightly more invasive than the DU145 cells. As was described above, the cells were implanted sub-cutaneously in SCID mice and treatments were initiated when the tumors reached a volume of approximately 100 mm^3 (designated day 1). The h16B5 injections were administered i.p. on day 1 at 5 mg/kg and continued twice per week thereafter whereas a single TxT injection at 10 mg/kg was administered i.p. on day 5.

The test system of a further assay is PC3 tumor cell line. In words: invasive growth in Matrigel, PC3. Format: cell-based, human. Conditions: 8 μg/mL, up to 3 weeks. As to the method:
(§1) FIG. 5. Inhibition of h16B5 reduces the invasiveness of human prostate cancer cells. The bottom of 12-well plates was covered with 200 μL Growth factor reduced matrigel (Becton Dickinson). Cells (2.5×10^4) were resuspended in 200 μL matrigel, which was layered on top of this, and finally 500 μL of cell specific growth medium was added on top of the matrigel. h16B5 was added to every layer of matrigel as well as the medium in a concentration of 8 μg/mL. Plates were incubated at 37° C. for up to 3 weeks during which the growth medium (+/−h16B5) was replenished weekly. The arrows indicate the areas of epithelial-like cells.
(§2) We then determined whether other cell lines such as the human prostate PC3 and DU145 cell lines, which secrete various levels of endogenous clusterin, could be affected in their invasive behavior and growth by the h16B5.

The subject of a further assay is DU145 cells. Briefly: growth in Matrigel, DU145. The assay is classed as cell-based, human. Conditions: 8 μg/mL, up to 3 weeks. The protocol: as §1, §2
For the next assay, the target named is T2, clusterin (Homo sapiens, UniProt P10909).
T2 construct: from tissue; host or cells: formalin-fixed, paraffin-embedded xenograft tumours of Aspc-1, BxPC-3, PANC-1 and MiaPaCa-2 cells grown in SCID mice
T2 sequence (P10909 23-449): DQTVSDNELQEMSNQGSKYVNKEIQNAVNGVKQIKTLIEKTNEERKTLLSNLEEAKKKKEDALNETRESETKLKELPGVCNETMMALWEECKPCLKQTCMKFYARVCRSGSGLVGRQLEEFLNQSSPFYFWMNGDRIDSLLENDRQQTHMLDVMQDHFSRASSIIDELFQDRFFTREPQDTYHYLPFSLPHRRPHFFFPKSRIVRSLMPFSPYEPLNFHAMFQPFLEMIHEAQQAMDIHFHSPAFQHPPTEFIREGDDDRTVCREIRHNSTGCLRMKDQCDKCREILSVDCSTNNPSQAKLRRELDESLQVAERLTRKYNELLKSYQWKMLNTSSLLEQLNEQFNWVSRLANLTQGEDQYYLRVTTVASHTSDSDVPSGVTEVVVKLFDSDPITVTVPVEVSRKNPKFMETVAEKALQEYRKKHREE
In words: immunohistochemistry on tumors derived from human pancreatic cancer cell lines. The assay is classed as binding. The following applies: 5 μg/ml, 1 h at room temperature. As to the method:
FIG. 11. Clusterin is expressed in human pancreatic tumors. Tumors derived from pancreatic cancer cell lines (as indicated) were grown in SCID mice, harvested, fixed in formalin, sections and examined using immunohistochemistry with h16B5. Positive staining was visualized by standard methods using a HRP-conjugated secondary antibody. The negative control was performed under identical conditions with an isotype control antibody.
Tumors derived from 4 different human pancreatic cell lines were obtained which were fixed in formalin, embedded in paraffin, and section on glass slides. Immunohistochemistry was conducted with h16B5 antibody to determine if tumors derived from this cancer indication expressed clusterin. The tumors were derived from Aspc-1, BxPC-3, PANC-1, and MiaPaCa-2 all of which were derived from pancreatic cancer patients (ATCC, Manassas, Va.). Paraffin-embedded epithelial pancreatic tumor samples were placed on glass slides and fixed for 15 min at 50° C. Deparaffinization was conducted by treating 2× with xylene followed by dehydration in successive 5 min washes in 100%, 80%, and 70% ethanol. The slides were washed 2× in PBS for 5 min and treated with antigen retrieval solution (citrate-EDTA) to unmask the antigen. […] H16B5-reactive clusterin was detected by incubating with biotin-conjugated human anti-kappa followed by streptavidin-HRP tertiary antibody. […]

Here are results for 1 substance from patent publication US8802826B2, “Anti-clusterin antibodies and antigen binding fragments and their use to reduce tumor volume” (Alethia Biotherapeutics Inc., priority 2009, dated 2014).

As to “h16B5: humanized anti-clusterin IgG2 antibody, heavy chain SEQ ID NO.:9 and light chain SEQ ID NO.:10”, the “migration of cells into the denuded area” value in the assay on EMT6 cells (37 C for 15 h) was “blockage of migration”. Also, the figures for the “activity in the scratch assay relative to the other antibodies” value with EMT6 cells and in the assay on EMT6 cells (listed as humanized 16B5) were “at least as active as the mouse 16B6” and “most effective inhibitor”, respectively. In assay [1], the “growth of the (primary) tumors compared to the control” value is given as “significantly reduced”. Further, in the assay with murine clusterin, the “detection of murine clusterin in 4T1 tumors” value is listed as “detected murine clusterin”. For the same substance, the “increase in overall survival” value in assay [2] (5 mg/kg i.p. twice per week) is on record as 47%. Also, the mice remaining alive entry in assay [2] (day 43 (no remaining animals in the control group)) is “greater than 60%”. The “reduction in average tumor size compared to the control group” value in assay [2] (day 43, 5 mg/kg i.p. twice per week) amounted to 37%. In addition, the “survival of the animals” value in assay [2] (h16B5 in combination with TxT) was “extended the survival”. The “stellate morphology in Matrigel (invasive phenotype)” value with PC3 tumor cell line is reported as “significantly reduced”. Further, in the assay on DU145 cells, the “sphere-like structures in Matrigel” value is “smaller and fewer in number”. For the same substance, the “staining for clusterin expression in Aspc-1, BxPC-3, PANC-1 and MiaPaCa-2 derived tumors” value with clusterin is on record as “stained positive”.
